Assay results as given in US7781565B2 (priority 2006, dated 2010).
Entries after “also recorded” stand apart in the source; their conditions may differ.

test system: NCI-60 cell lines; format: cell-based, human

| Substance | Cell Line (NCI-60 cell line the peptide and its motif are associated with) | Cell Line with which the peptide (and its tripeptide motif) is associated | Cell Line the peptide is associated with (peptide recovered from phage library selection on this NCI-60 cell line) | Cell Line (NCI-60 cell line the peptide is associated with) |
| --- | --- | --- | --- | --- |
| VGSTRSS | SK-MEL-28 Melanoma | – | – | – |
| VGSVGLG | – | Hop-62-Lung | – | – |
| VGSVKAS | PC3 Prostate | – | – | – |
| VGSVSVN | – | A549-Lung | – | – |
| VGSVVGR | – | Hop-92-Lung | – | – |
| VGVMGGR | – | – | CAIK-1 Renal | – |
| VGVRFSR | SK-MEL-28 Melanoma | – | – | – |
| VGVSQEW | – | – | TK-10 Renal | – |
| VHKRAVL | – | – | UO31 Renal | – |
| VHRVSGG | – | RPMI-8226-Leukemia | – | – |
| VHSLRAS | UACC 257 Melanoma | – | – | – |
| VIGSRLS | – | EKVX-Lung | – | – |
| VIVRGSL | – | – | UO31 Renal | – |
| VKGSSMR | – | – | A498 Renal | – |
| VLASLSG | IGROV1 Ovarian | – | – | – |
| VLFSAGS | – | K-562-Leukemia | – | – |
| VLGMRSS | – | SR Leukemia | – | – |
| VLLSAGL | – | – | RXF393 Renal | – |
| VLRAASR | – | – | – | HT-29 Colon |
| VLRGSTP | PC3 Prostate | – | – | – |
| VLRSALQ | – | – | – | KM-12C Colon |
| VLRSGEL | – | – | – | SF-295 CNS |
| VLRSIPS | – | – | – | SF-295 CNS |

| Substance | Cell Line (NCI-60 cell line the peptide and its motif are associated with) | Cell Line with which the peptide (and its tripeptide motif) is associated | Cell Line the peptide is associated with (peptide recovered from phage library selection on this NCI-60 cell line) | Cell Line (NCI-60 cell line the peptide is associated with) |
| --- | --- | --- | --- | --- |
| VLSAVSS | – | – | – | SNB-19 CNS; also recorded: SF-539 CNS |
| VLTRAST | – | – | – | HCC-2998-Colon |
| VLVEGAV | – | – | TK-10 Renal | – |
| VMDRGVA | UACC 257 Melanoma | – | – | – |
| VMGAGVQ | – | – | ACHN Renal | – |
| VMGGPSL | – | Hop-62-Lung | – | – |
| VMLLRPE | – | HL-60-Leukemia | – | – |
| VMPGSVV | – | – | – | SF-295 CNS |
| VMWVARG | – | – | – | KM-12C Colon |
| VNLGGSW | – | H322-Lung | – | – |
| VPLRSSA | – | – | – | HT-29 Colon |
| VPPSGGR | – | – | RXF393 Renal | – |
| VPSGSVR | – | – | NCI/ADR-RES Breast | – |
| VRAAGRV | – | Hop-62-Lung | – | – |
| VRANGGS | – | – | MDA-MB-231 Breast | – |
| VRASSKR | OVCAR-5 Ovarian | – | – | – |
| VRAVCLM | – | – | – | SNB-75 CNS |
| VRGGLTG | – | – | – | HT-29 Colon |
| VRGSRWR | – | – | – | HT-29 Colon |
| VRGSVRA | – | H23-Lung | – | – |
| VRLRAVF | – | – | TK-10 Renal | – |
| VRLSGRA | – | – | – | SNB-19 CNS; also recorded: SF-539 CNS |
| VRLTGVR | SK-OV-3-3 Ovarian | – | – | – |

| Substance | Cell Line (NCI-60 cell line the peptide and its motif are associated with) | Cell Line with which the peptide (and its tripeptide motif) is associated | Cell Line the peptide is associated with (peptide recovered from phage library selection on this NCI-60 cell line) | Cell Line (NCI-60 cell line the peptide is associated with) |
| --- | --- | --- | --- | --- |
| VRPRAVL | UACC62 Melanoma | – | – | – |
| VRRSSKF | – | – | BT-549 Breast | – |
| VRSSGVL | SK-OV-3-3 Ovarian | – | – | – |
| VRVGRLS | UACC62 Melanoma | – | – | – |
| VRVSGLT | SK-MEL-5 Melanoma | – | – | – |
| VRVSLNS | – | – | MDA-MB-231 Breast | – |
| VSAASSV | – | – | RXF393 Renal | – |
| VSGDGGS | – | – | – | SNB-75 CNS |
| VSGSGTA | PC3 Prostate | – | – | – |
| VSRIGVR | – | – | – | LOX-IMVI Melanoma |
| VSSTARG | – | – | – | MALME-3M Melanoma |
| VTDGAGQ | – | – | – | SF-268 CNS |
| VTGGRVD | – | A549-Lung | – | – |
| VTRIRVS | UACC 257 Melanoma | – | – | – |
| VVASLPH | – | – | – | HT-29 Colon |
| VVGGRRT | – | – | HS 578 T Breast | – |
| VVMIAGS | – | – | MDA-MB-231 Breast | – |
| VWAGVLL | – | Hop-62-Lung | – | – |
| VWGVGGS | – | K-562-Leukemia | – | – |
| VWLRGST | M14 Melanoma | – | – | – |
| VYGGRSE | – | – | CAIK-1 Renal | – |
| VYGWGGS | DU-145 Prostate | – | – | – |
| VYWWGVS | – | – | A498 Renal | – |

| Substance | Cell Line (NCI-60 cell line the peptide and its motif are associated with) | Cell Line with which the peptide (and its tripeptide motif) is associated | Cell Line the peptide is associated with (peptide recovered from phage library selection on this NCI-60 cell line) | Cell Line (NCI-60 cell line the peptide is associated with) |
| --- | --- | --- | --- | --- |
| VYYALRS | – | – | – | KM-12C Colon |
| VYYRLSA | – | SR Leukemia | – | – |
| WAGLSPS | – | Hop-92-Lung | – | – |
| WAGLSRP | – | – | SN12C Renal | – |
| WAGSNYS | – | – | – | SNB-75 CNS |
| WAHAASY | – | – | CAIK-1 Renal | – |
| WAHGVLS | M14 Melanoma | – | – | – |
| WARAGGF | – | – | – | SNB-19 CNS; also recorded: SF-539 CNS |
| WDGSSVS | – | – | SN12C Renal | – |
| WDQGSGY | OVCAR-4 Ovarian | – | – | – |
| WFGAVGL | – | Molt-4-Leukemia | – | – |
| WFKGPSV | – | – | – | SF-268 CNS |
| WFSWLVS | – | H460-Lung | – | – |
| WGAGFWM | – | H460-Lung | – | – |
| WGAGLDA | OVCAR-4 Ovarian | – | – | – |
| WGATAGG | – | Hop-62-Lung | – | – |
| WGLVRHA | – | – | – | SF-268 CNS |
| WGRGSVA | – | Molt-4-Leukemia | – | – |
| WGRLEST | – | – | BT-549 Breast | – |
| WGSGRGN | – | HL-60-Leukemia | – | – |
| WGSSAVK | IGROV1 Ovarian | – | – | – |
| WGSSTVR | – | H322-Lung | – | – |
| WGSVAGI | – | – | – | SNB-75 CNS |

| Substance | Cell Line (NCI-60 cell line the peptide and its motif are associated with) | Cell Line with which the peptide (and its tripeptide motif) is associated | Cell Line the peptide is associated with (peptide recovered from phage library selection on this NCI-60 cell line) | Cell Line (NCI-60 cell line the peptide is associated with) |
| --- | --- | --- | --- | --- |
| WGVAGLG | – | – | – | HT-29 Colon |
| WGVLQLE | – | – | – | LOX-IMVI Melanoma |
| WGWRASS | – | A549-Lung | – | – |
| WISAVSK | SK-OV-3-3 Ovarian | – | – | – |
| WIWRAVS | – | – | – | SF-268 CNS |
| WLDAAVK | – | – | – | LOX-IMVI Melanoma |
| WLDASLM | – | SR Leukemia | – | – |
| WLLRGFG | A498 Renal | – | – | – |
| WLLRSWS | – | – | CAIK-1 Renal | – |
| WLLSARL | – | – | – | HCC-2998-Colon |
| WLLSSEI | PC3 Prostate | – | – | – |
| WQVALRS | – | – | – | HT-29 Colon |
| WQVSGVR | – | – | – | KM-12C Colon |
| WRARASP | UACC62 Melanoma | – | – | – |
| WRASAFT | – | SR Leukemia | – | – |
| WRASPGM | – | – | BT-549 Breast | – |
| WRGGLDR | – | – | MCF-7 Breast | – |
| WRLAGLG | – | – | NCI/ADR-RES Breast | – |
| WRLGAVG | – | – | – | SW620-Colon |
| WRLLRRQ | – | SR Leukemia | – | – |
| WRLSREG | SK-MEL-2 Melanoma | – | – | – |
| WRVRSSG | – | – | – | HCT-15 Colon |
| WSAGGPH | – | SR Leukemia | – | – |

| Substance | Cell Line (NCI-60 cell line the peptide and its motif are associated with) | Cell Line with which the peptide (and its tripeptide motif) is associated | Cell Line the peptide is associated with (peptide recovered from phage library selection on this NCI-60 cell line) | Cell Line (NCI-60 cell line the peptide is associated with) |
| --- | --- | --- | --- | --- |
| WSATGVS | – | – | HS 578 T Breast | – |
| WSGGLNV | – | H322-Lung | – | – |
| WSGVSRL | – | – | – | HCT-15 Colon |
| WSISGSV | – | – | MDA-MB-231 Breast | – |
| WSSTASL | – | H460-Lung | – | – |
| WTERASA | – | – | – | HCT-15 Colon |
| WTKRGSV | – | K-562-Leukemia | – | – |
| WTVGGRV | – | – | A498 Renal | – |
| WVGPSGG | SK-MEL-5 Melanoma | – | – | – |
| WVGSGSP | – | Hop-92-Lung | – | – |
| WVGSSKF | – | A549-Lung | – | – |
| WVSGRLG | – | – | – | COLO-205-Colon |
| WWAAVPG | – | – | SN12C Renal | – |
| WWGLGWL | – | – | – | HCC-2998-Colon |
| WYGGRGN | OVCAR-4 Ovarian | – | – | – |
| YAAGGST | A498 Renal | – | A498 Renal | – |
| YAASLMG | – | – | – | SNB-75 CNS |
| YADGAAV | – | – | – | SF-295 CNS |
